# Results from patent publication US20190275061A1, “INHIBITION OF FIBROSIS IN NON ALCOHOL FATTY LIVER DISEASE PATIENTS” (GALMED RESEARCH AND DEVELOPMENT LTD, priority 2016, published 2019).
# “Also recorded” adds a separate entry of the source.
# Key:
# [1] = system: LX-2 human hepatic stellate cells; test: Collagen production from LX-2 human hepatic stellate cells; assay type: cell-based; conditions: LX-2 cells, relative to a DMSO control
# [2] = system: Thioacetamide (TAA)-Induced Fibrosis; test: Thioacetamide (TAA)-induced fibrosis, model for hepatic cirrhosis; assay type: in vivo; conditions: 5 mg/kg co-administered with TAA, 10 weeks, Wistar rats
# Description: Liver fibrosis was induces in Wistar rats by intraperitoneal injections of TAA […] body weight) twice per week during 10 weeks. I.p. application of TAA results in hepatic centrolobular necrosis, elevated transaminase activity and robust liver fibrosis. Treatment groups further included co-administration of Aramchol (1 or 5 mg/kg orally) or obaticholic acid (OCA, 5 mg/kg). A control group of saline-treated rats (in the absence of TAA administration) was further included. Rats were then sacrificed, and livers were observed macroscopically for signs of cirrhosis and necrotic lesions, and microscopically, following Masson Goldner staining. The fibrosis score, calculated at a scale of 0-4, was determined for each sample, wherein 0 indicates no fibrosis and 4 indicates advanced fibrosis and cirrhosis.
# COL1A1 = COL1A1 expression in LX-2 human hepatic stellate cells; assay type: cell-based; conditions: LX-2 cells, Aramchol 10 mM, 24 hours, RNA
# Description: (§1) LX2 cells (150.000 cells per well) were plated in DMEM media containing antibiotics, glutamine and bovine fetal serum. After 24 hours incubation, media was changed to 0% serum and incubated for an additional period of 16 hours. Then, Aramchol (10 mM) was added and 24 hours later RNA was extracted with Trizol.
# PPAR-γ = PPAR-γ expression in LX-2 human hepatic stellate cells; assay type: cell-based; conditions: LX-2 cells, Aramchol 10 mM, 24 hours, RNA
# Description: as §1
# [3] = system: 0.1 MCD diet mouse model of NASH; test: 0.1% methionine- and choline-deficient (0.1 MCD) diet mouse model of NASH; assay type: in vivo, C57B1/6 mice; conditions: 5 mg/Kg/day orally by gavage, 0.1 MCD-fed mice
# Description: The study described below investigates the mechanism of action of Aramchol and its potential effect on fibrosis using the 0.1% methionine- and choline-deficient (0.1 MCD) diet mouse model of NASH.
# C57B1/6 were fed the Methionine and Choline Deficient (MCD) and control diet and were sacrificed after 4 weeks. The MCD diet induces aminotransferase elevation and changes in hepatic histological features, characterized by steatosis, local inflammation, hepatocyte necrosis and fibrosis. These changes occur rapidly and are morphologically similar to those observed in human NASH. In this study the MCD diet contained 0.1% methionine to minimize and stabilize weight loss. At the end of the second week, after verification of established NASH, 0.1 MCD-fed mice were treated orally by gavage with Aramchol (5 mg/Kg/day) or vehicle (n=10, each condition). Control diet-fed mice were also treated with vehicle for same duration (n=10). At the end of the experiment, blood and liver samples were obtained. A diagram of the experimental design is shown below: […]
smiles,measurement,setting,value
"CCCCCCCCCCCCCCCCCCCC(=O)N[C@H]1CCC2(C)C(CC(O)C3C2C[C@H](O)C2(C)C(C(C)CCC(=O)O)CCC32)C1 (stereo in doubt) [Aramchol, 3β-arachidylamido-7α, 12α-dihydroxy-5β-cholan-24-oic acid]",collagen production,[1],significantly down regulates
same,TAA induced fibrosis,[2],significantly prevented; also recorded: significantly inhibited
same,collagen distribution in the tissue (FIG. 2),[2],reduced significantly
same,"development of necrosis and cirrhosis (macroscopic, FIG. 1)",[2],reduced significantly; also recorded: significantly inhibited
same,"fibrotic score (Masson Goldner staining, scale 0-4, FIG. 2)",[2],reduced significantly
same,COL1A1 expression,COL1A1,significantly reduced
same,PPARγ expression,PPAR-γ,up-regulation
same,FA(16:1)/FA(16:0) ratio,[3],marked decrease
same,SCD1 activity,[3],reduced
same,SCD1 expression,[3],marked decrease
same,content of total oxFA including oxLA,[3],marked reduction
same,hepatic content of diglycerides (DG) and TG,[3],reduction
same,oxidative stress,[3],improved
same,total content of monounsaturated FA (MUFA),[3],marked decrease
same,fibrosis in the liver (sirius red),[3]; from end of week 2 to week 4,significantly down regulates/normalizes; also recorded: reduction
same,infiltration and activation status of macrophages in the liver (F4/80 and CD64),[3]; from end of week 2 to week 4,significantly down regulates/normalizes; also recorded: reduction
same,steatosis in the liver (Sudan III),[3]; from end of week 2 to week 4,significantly down regulates; also recorded: reduction
same,GSH/GSSG ratio,[3]; liver,elevates; also recorded: normalization
same,glutathione,[3]; liver,significantly up regulates
same,collagen in the liver,[3]; liver extract,significantly down regulates
